# Laboratory results reported in US10196685B2, “Methods and systems for delivering process gases to critical process applications” (RASIRC, INC., priority 2014, dated 2019).
# Several values for one entry are separate records, joined by “and”; a condition that tells them apart may be missing. Identical values can stand only once. Like-named read-outs stand apart in the source and are kept apart here.
# Columns and labels:
# bacterial samples = details: visible mist or fog, droplets condensed onto the sample
# E. coli [1] = details: 1.7×10^7 cfu E. coli per spot; gas-phase H2O2 505 ppm, H2O 2122 ppm, 60 minutes, 25° C.
# Text: The CDA gas pressure was maintained at 25 psig with the pressure regulator. A 0.01 micron filter removed particulates from the gas stream. The MFCs controlled the flow of the carrier gas streams and the dilution gas stream. […] The water temperature was used to control the output of the humidifier. The valves (V-1, V-2, and V-3) were used to send either the dry CDA gas stream, the RHS gas stream, and/or SGD gas stream through the furnace or out to vent. […] TC-3 and TC-4 were used to measure the gas temperature downstream of the SGD. The furnace was used to keep the bacterial samples at temperature to prevent condensation. TC-5 was used to measure the temperature in the quartz furnace. TC-6 was used to measure the gas temperature downstream of the furnace. A pressure gauge (PG-1) was used to monitor the pressure in the furnace. A Teledyne Prototype Analyzer was used to determine stability of the peroxide gas and its temperature was kept at 120° C. […] The boxed sections show the individual heat traced control zones for this experiment.
# (§1) The initial test manifold was set to the following temperatures: • Zone 1=72° C. (Outlet temperature of SGD) • Zone 3=90° C.
# The dilution gas flow rate was set to 5 slm, the RHS carrier gas to 180 sccm, and the SGD carrier gas flow to 1 slm. The RHS was then set to a 35° C. dew point, and the SGD to 30° C., running both gas streams to vent. […]
# S. epi = system: S. epi
# Method: (§2) A 0.01 micron filter removed particulates from the gas stream. […] The water temperature was used to control the output of the humidifier. […] The furnace was used to keep the bacterial samples at temperature to prevent condensation. […] The boxed sections show the individual heat traced control zones for this experiment.
# as §1
# E. coli [2] = system: E. coli
# Method: as §2, §1
# bovine genomic DNA = details: H2O2 505 ppm, 5 hours; for Average Decrease %: three replicates
# Method: as §1
# The dilution gas flow rate was set to 5 slm, the RHS carrier gas to 180 sccm, and the SGD carrier gas flow to 1 slm. The RHS was then set to a 35° C. dew point, and the SGD to 30° C., running both gas streams to vent. The furnace and the heat-traced line temperatures were adjusted to achieve the desired gas temperatures. The SGD and RHS systems were allowed to stabilize. Samples were treated and processed as described in the following Examples.
# A PCR plate to be used for quantifying amplifiable DNA was prepared with three replicates at each target input level (i.e., ranging from 0 ng to 1,000 ng). In each instance, measured aliquots of an aqueous solution of bovine genomic DNA were added to individual wells of the plate, and then dried. […] The chamber was initially purged for 15 minutes with CDA. […] Finally, the chamber was purged for an additional 15 minutes with CDA. Each well containing treated sample next received an aliquot of liquid reagents needed to carry out PCR amplification reactions. These reagents included: a pair of unlabeled DNA primers capable of amplifying the template; nucleotide triphosphates; buffer and salts; a dual-labeled hydrolysis probe specific for the DNA amplification product; and a thermostable DNA polymerase having 5′-3′ exonuclease activity. Amplification reactions were carried out using procedures familiar to those of ordinary skill in the art, and the appearance of fluorescent signals monitored as a function of time in a real-time format.
smiles,measurement,setting,value
"OO [hydrogen peroxide gas, hydrogen peroxide]",Effect on the number of viable organisms,bacterial samples,did not significantly reduce the number of viable organisms
same,Growth on tryptic soy agar plates after H202 treatment (bacterial slides),E. coli [1],No Growth
same,CONCENTRATION (S. epi in device with H2O2),"S. epi; 5 hour H2O2 exposure, average H2O2 output 518±14 ppm, stock 3.5 × 10^6",NO GROWTH
same,Sterilization result in words,"S. epi; fifth experiment, 5 hour H2O2 exposure, 518±14 ppm",sterilized
same,CONCENTRATION (S. epi in device with H2O2),"S. epi; hydrogen peroxide gas 30 minutes, average H2O2 output 561±27 ppm, ≥25° C., stock 5.0 × 10^6, contamination believed",~10^4 to 10^5 estimated
same,CONCENTRATION (E. coli in device with H2O2),"E. coli [2]; hydrogen peroxide gas 30 minutes, average H2O2 output 561±27 ppm, ≥25° C., stock 2.5 × 10^7",NO GROWTH
same,Sterilization result in words,"E. coli [2]; tests of FIGS. 32 and 33, 30 minutes H2O2 gas",completely sterilized
same,Decrease %,"bovine genomic DNA; Input 1 ng DNA, 25° C.",100%
same,Remaining %,"bovine genomic DNA; Input 1 ng DNA, 25° C.",0%
same,Calculated ng After Treatment,"bovine genomic DNA; Input 1 ng DNA, H2O 2122 ppm, 25° C.",0 ng
same,Average Decrease %,"bovine genomic DNA; Input 1 ng DNA, 25° C.",100.00%
same,Decrease %,"bovine genomic DNA; Input 10 ng DNA, 25° C.",98.55% and 99.28% and 94.5%
same,Average Decrease %,"bovine genomic DNA; Input 10 ng DNA, 25° C.",97.44%
same,Decrease %,"bovine genomic DNA; Input 100 ng DNA, 25° C.",99.19% and 99.92% and 99.978%
same,Average Decrease %,"bovine genomic DNA; Input 100 ng DNA, 25° C.",99.70%
same,Decrease %,"bovine genomic DNA; Input 1000 ng DNA, 25° C.",99.9957% and 99.9953% and 99.967%
same,Average Decrease %,"bovine genomic DNA; Input 1000 ng DNA, 25° C.",99.99%
same,Reduction of amplifiable DNA,bovine genomic DNA; sample containing the greatest amount of starting material,about 4 logs
same,Amplifiable DNA after treatment,bovine genomic DNA; sample containing the lowest amount of starting material,completely undetectable
